Experiments:
prolyl endopeptidase = target: T1, prolyl endopeptidase (Rattus norvegicus, UniProt O70196); assay: Prolyl Endopeptidase-Inhibitory Activity; format: biochemical; conditions: for IC50: prolyl endopeptidase extracted from rat brain, pH 7.0, 30° C., preincubated 30 minutes, 1 hour; for inhibition at 10 µM: 1 × 10^-5 M; for inhibition at 10 µM / inhibition at 0.01 µM / inhibition at 1 µM: read-out: Inhibition rate, prolyl endopeptidase; for inhibition at 0.01 µM: 1 × 10^-8 M; for inhibition at 1 µM: 1 × 10^-6 M
T1 construct: prolyl endopeptidase extracted from rat brain; from tissue; host or cells: rat brain
Protocol: A mixture of a 0.1M potassium sodium phosphate buffer (pH 7.0) (2675 μl), a solution of the compounds of the present invention in a 0.1M potassium sodium phosphate buffer (pH 7.0) (100 μl) and a solution of prolyl endopeptidase extracted from rat brain in a 25 mM sodium phosphate buffer (100 μl) [123 unit/1, pH 6.8, containing 1 mM dithiothreitol and 0.5 mM EDTA, prepared by the method described in J. Neurochem., 35, 527 (1980)] was preincubated at 30° C. for 30 minutes. Thereto was added a 0.2 mM solution of 7-(N-succinyl-glycyl-prolyl)-4-methylcoumarinamide (Peptide Institute, INC.) in a 0.1M potassium sodium phosphate buffer (pH 7.0) (125 μl), and the mixture was incubated at 30° C. for 1 hour. The reaction mixture was immersed in ice (0° C.) to terminate the reaction, and the fluorescence (a1) was determined ten minutes later (excitation at 370 nm and emission at 440 nm). Concurrently, there were conducted the experiment wherein, in the above system, the prolyl endopeptidase solution was substituted for a 25 mM sodium phosphate buffer (pH 6.8, containing 1 mM dithiothreitol and 0.5 mM EDTA) and the experiment wherein the solution of the compounds of the present invention was also substituted for a 0.1M potassium sodium phosphate buffer (pH 7.0). Each fluorescence (a2 and a3) was also determined respectively [See Tanpakushitsu Kakusan Koso, 29, 127 (1984)]. The prolyl endopeptidase-inhibition rate was calculated by the following formula, and IC50, a concentration of a compound producing 50% inhibition, was estimated by semilogarithmic graph paper. [formula]

cathepsin B = target: T2, cathepsin B (Bos taurus, UniProt P07688); assay: Cathepsin B-Inhibitory Activity; format: biochemical, bovine; conditions: read-out: Inhibition rate, cathepsin B; for inhibition at 10 µM: 1 × 10^-5 M; for inhibition at 0.01 µM: 1 × 10^-8 M; for inhibition at 1 µM: 1 × 10^-6 M
T2 construct: purchased Sigma; host or cells: bovine spleen
Protocol: Similarly, by following the procedure mentioned above, but employing a 100 mM sodium phosphate buffer (pH 6.0; containing 1.33 mM EDTA Na2) as a buffer for measurement, a 0.02 μM solution of cathepsin B (derived from bovine spleen, Sigma) in the same buffer as an enzyme solution and a 200 μM solution of 7-(N-benzyloxycarbonyl-phenylaranyl-arginyl)-4-methylcoumarinamide (Peptide Institute, Inc.) in the same buffer as a substrate solution. Each fluorescence (f1, f2 and f3) was also determined, respectively.
(§1) Using the fluorescence x1, x2 and x3 measured in the above-mentioned manner, the inhibitory rate against various proteases was calculated by the following formula where x stands for b, c, d, e or f: [formula]

elastase = target: T3, elastase (Sus scrofa, UniProt P00772); assay: Elastase-Inhibitory Activity; format: biochemical, swine; conditions: read-out: Inhibition rate, elastase; for inhibition at 10 µM: 1 × 10^-5 M; for inhibition at 0.01 µM: 1 × 10^-8 M; for inhibition at 1 µM: 1 × 10^-6 M
T3 construct: purchased Sigma; host or cells: swine pancreas
Protocol: Similarly, by following the procedure mentioned above, but employing a 1 mM Tris-HCl buffer (pH 8.5) as a buffer for measurement, a 0.2 μM solution of elastase (derived from swine pancreas, Sigma) in the same buffer as an enzyme solution and a 200 μM solution of 7-(N-succinyl-aranyl-prolyl-aranyl)-4-methylcoumarinamide (Peptide Institute, Inc.) in the same buffer as a substrate solution. Each fluorescence (e1, e2 and e3) was also determined, respectively.
as §1

chymotrypsin = target: T4, chymotrypsin (Bos taurus, UniProt P00766); assay: Chymotrypsin-Inhibitory Activity; format: biochemical, bovine; conditions: read-out: Inhibition rate, chymotrypsin; for inhibition at 10 µM: 1 × 10^-5 M; for inhibition at 0.01 µM: 1 × 10^-8 M; for inhibition at 1 µM: 1 × 10^-6 M
T4 construct: purchased Sigma; host or cells: bovine pancreas
Protocol: (§2) Similarly, by following the procedure mentioned above, but employing a 50 mM Tris-HCl buffer (pH 8.0) as a buffer for measurement, a 0.2 μM solution of chymotrypsin (derived from bovine pancrease, Sigma) in the same buffer as an enzyme solution and a 200 μM solution of 7-(N-succinyl-leucyl-leucyl-valyl-tyrosyl)-4-methylcoumarinamide (Peptide Institute, Inc.) in the same buffer as a substrate solution. Each fluorescence (c1, c2 and c3) was also determined, respectively.
as §1

trypsin = target: T5, trypsin (Bos taurus, UniProt P00760); assay: Trypsin-Inhibitory Activity; format: biochemical, bovine; conditions: read-out: Inhibition rate, trypsin; for inhibition at 10 µM: 1 × 10^-5 M; for inhibition at 0.01 µM: 1 × 10^-8 M; for inhibition at 1 µM: 1 × 10^-6 M
T5 construct: purchased Sigma; host or cells: bovine pancreas
T5 sequence (P00760 24-246): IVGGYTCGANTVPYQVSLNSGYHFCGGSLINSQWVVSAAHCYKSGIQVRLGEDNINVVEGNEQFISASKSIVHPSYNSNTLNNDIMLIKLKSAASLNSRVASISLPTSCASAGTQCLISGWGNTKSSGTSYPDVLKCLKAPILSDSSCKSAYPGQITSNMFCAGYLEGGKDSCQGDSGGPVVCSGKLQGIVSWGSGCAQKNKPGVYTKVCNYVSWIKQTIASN
Protocol: In the present invention, a 50 mM Tris-HCl buffer (pH 8.0) was employed as a buffer for measurement.
To a mixture of the above-mentioned buffer (850 μl), a solution of the compounds of the present invention in the same buffer (50 μl) and a 0.02 μM solution of trypsin (derived from bovine pancreas, Sigma) in the same buffer (50 μl) was added a 200 μM solution of 7-(prolyl-phenylaranyl-arginyl)-4-methylcoumarinamide (Peptide Institute, Inc.) in the same buffer (50 μl), and the mixture was incubated at 30° C. for 1 hour. The reaction mixture was immersed in ice (0° C.) to terminate the reaction, and the fluorescence (b1) was determined 1 hour later (excitation at 370 nm and emission at 440 nm). Concurrently, there were conducted the experiment wherein, in the system above, the trypsin solution was substituted for a buffer alone, and the experiment wherein the solution of the compounds of the present invention was also substituted for a buffer above. Each fluorescence (b2 and b3) was also determined respectively.
as §1

leucine aminopeptidase = assay: Leucine Aminopeptidase-Inhibitory Activity; format: biochemical, swine
Protocol: as §2, with “leucine aminopeptidase” for “chymotrypsin”, “swine kidney,” for “bovine pancrease,”, “7-(leucyl-4-methylcoumarinamide” for “7-(N-succinyl-leucyl-leucyl-valyl-tyrosyl)-4-methylcoumarinamide”, “(d1, d2” for “(c1, c2”, “d3)” for “c3)”
as §1

T1 sequence (O70196 whole entry): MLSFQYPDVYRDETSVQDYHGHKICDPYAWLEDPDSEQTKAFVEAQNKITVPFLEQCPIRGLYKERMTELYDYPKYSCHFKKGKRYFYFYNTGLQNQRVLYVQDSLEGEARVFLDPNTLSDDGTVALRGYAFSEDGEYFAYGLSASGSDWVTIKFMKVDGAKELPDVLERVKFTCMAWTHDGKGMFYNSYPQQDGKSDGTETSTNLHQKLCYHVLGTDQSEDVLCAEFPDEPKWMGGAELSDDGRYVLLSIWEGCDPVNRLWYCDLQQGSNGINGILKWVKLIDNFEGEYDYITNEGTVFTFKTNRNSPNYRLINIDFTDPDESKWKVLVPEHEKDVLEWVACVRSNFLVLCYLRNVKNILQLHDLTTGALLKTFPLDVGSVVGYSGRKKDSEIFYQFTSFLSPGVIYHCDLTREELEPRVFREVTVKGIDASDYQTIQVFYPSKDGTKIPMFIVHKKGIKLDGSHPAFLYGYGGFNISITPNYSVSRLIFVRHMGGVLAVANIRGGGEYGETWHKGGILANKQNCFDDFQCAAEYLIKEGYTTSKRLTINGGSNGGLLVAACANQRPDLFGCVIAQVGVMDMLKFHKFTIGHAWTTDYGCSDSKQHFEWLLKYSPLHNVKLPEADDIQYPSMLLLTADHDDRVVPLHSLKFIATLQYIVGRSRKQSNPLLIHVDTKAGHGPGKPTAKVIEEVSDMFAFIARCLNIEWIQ
T3 sequence (P00772 27-266): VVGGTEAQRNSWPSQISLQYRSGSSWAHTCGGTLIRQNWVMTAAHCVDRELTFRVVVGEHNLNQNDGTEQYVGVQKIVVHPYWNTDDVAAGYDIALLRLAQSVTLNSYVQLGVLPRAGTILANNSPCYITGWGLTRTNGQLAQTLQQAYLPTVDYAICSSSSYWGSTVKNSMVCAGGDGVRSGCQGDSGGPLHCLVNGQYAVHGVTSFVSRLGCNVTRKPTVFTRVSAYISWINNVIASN

CC(=O)ON=C[C@@H]1CSCN1C(=O)[C@@H]1CCCN1C(=O)OCc1ccccc1 [Compound 16, (4R)-3-(N-Benzyloxycarbonyl-L-prolyl)-4-thiazolidinecarboxaldehyde O-acetyloxime]
IC50 (prolyl endopeptidase): 100 nM

O=C([C@@H]1CCCN1C(=O)OCc1ccccc1)N1CCC[C@H]1C=NO [Compound 12, (2S)-1-(N-Benzyloxycarbonyl-L-prolyl)-2-pyrrolidinecarboxaldehyde oxime]
inhibition at 10 µM (cathepsin B): 0%
inhibition at 10 µM (elastase): 0%
inhibition at 10 µM (chymotrypsin): 0%
inhibition at 10 µM (trypsin): 0%
inhibition at 10 µM (prolyl endopeptidase): 100%
IC50 (prolyl endopeptidase): 450 nM
Inhibition rate, leucine aminopeptidase (leucine aminopeptidase; 1 × 10^-5 M): 0%

N#C[C@@H]1CCCN1C(=O)[C@@H]1CCCN1C(=O)OCc1ccccc1 [Compound 19, (2S)-1-(N-Benzyloxycarbonyl-L-prolyl)-2-cyanopyrrolidine]
inhibition at 0.01 µM (cathepsin B): 0%
inhibition at 0.01 µM (elastase): 0%
inhibition at 0.01 µM (chymotrypsin): 0%
inhibition at 0.01 µM (trypsin): 0%
inhibition at 0.01 µM (prolyl endopeptidase): 100%
IC50 (prolyl endopeptidase): 0.35 nM
Inhibition rate, leucine aminopeptidase (leucine aminopeptidase; 1 × 10^-8 M): 0%

O=C1CCCN1CC(=O)N1CSC[C@H]1C(=O)N1CCSC1 [Compound 9, 3-{N-[(2-Oxo-1-pyrrolidinyl)acetyl]-L-thioprolyl}thiazolidine]
inhibition at 10 µM (cathepsin B): 0%
inhibition at 10 µM (elastase): 0%
inhibition at 10 µM (chymotrypsin): 0%
inhibition at 10 µM (trypsin): 0%
inhibition at 10 µM (prolyl endopeptidase): 97%
IC50 (prolyl endopeptidase): 150 nM
Inhibition rate, leucine aminopeptidase (leucine aminopeptidase; 1 × 10^-5 M): 0%

N#C[C@@H]1CSCN1C(=O)[C@@H]1CSCN1C(=O)OCc1ccccc1 [Compound 20, (4R)-3-(N-Benzyloxycarbonyl-L-thioprolyl)-4-cyanothiazolidine]
IC50 (prolyl endopeptidase): 3.2 nM

N#C[C@@H]1CSCN1C(=O)[C@@H]1CCCN1C(=O)CN1CCCC1=O [Compound 24, (4R)-3-{N-[(2-Oxo-1-pyrrolidinyl)acetyl]-L-prolyl}-4-cyanothiazolidine]
IC50 (prolyl endopeptidase): 34 nM

CC(=O)ON=C[C@@H]1CSCN1C(=O)[C@@H]1CCCN1C(=O)CN1CCCC1=O [Compound 23, (4R)-3-{N-[(2-Oxo-1-pyrrolidinyl)acetyl]-L-prolyl}-4-thiazolidinecarboxaldehyde O-acetyloxime]
IC50 (prolyl endopeptidase): 640 nM

O=C[C@@H]1CCCN1C(=O)[C@@H]1CCCN1C(=O)CN1CCCC1=O [Compound 4, N-[(2-Oxo-1-pyrrolidinyl)acetyl]-L-prolyl-L-prolinal]
inhibition at 0.01 µM (cathepsin B): 0%
inhibition at 0.01 µM (elastase): 0%
inhibition at 0.01 µM (chymotrypsin): 0%
inhibition at 0.01 µM (trypsin): 0%
inhibition at 0.01 µM (prolyl endopeptidase): 100%
IC50 (prolyl endopeptidase): 0.4 nM
Inhibition rate, leucine aminopeptidase (leucine aminopeptidase; 1 × 10^-8 M): 0%

O=C1CCCN1CC(=O)N1CCC[C@H]1C(=O)N1CCSC1 [Compound 8, 3-{N-[(2-Oxo-1-pyrrolidinyl)acetyl]-L-prolyl}thiazolidine]
inhibition at 10 µM (cathepsin B): 0%
inhibition at 10 µM (elastase): 0%
inhibition at 10 µM (chymotrypsin): 0%
inhibition at 10 µM (trypsin): 0%
inhibition at 10 µM (prolyl endopeptidase): 96%
IC50 (prolyl endopeptidase): 200 nM
Inhibition rate, leucine aminopeptidase (leucine aminopeptidase; 1 × 10^-5 M): 0%

O=C[C@@H]1CSCN1C(=O)[C@@H]1CSCN1C(=O)CN1CCCC1=O [Compound 7, N-[(2-Oxo-1-pyrrolidinyl)acetyl]-L-thioprolyl-L-thioprolinal]
IC50 (prolyl endopeptidase): 5 nM

O=C([C@@H]1CCCN1C(=O)OCc1ccccc1)N1CCC[C@H]1C=NOCc1ccccc1 [Compound 18, (2S)-1-(N-Benzyloxycarbonyl-L-prolyl)-2-pyrrolidinecarboxaldehyde O-benzyloxime]
inhibition at 10 µM (cathepsin B): 0%
inhibition at 10 µM (elastase): 0%
inhibition at 10 µM (chymotrypsin): 0%
inhibition at 10 µM (trypsin): 0%
inhibition at 10 µM (prolyl endopeptidase): 100%
IC50 (prolyl endopeptidase): 40 nM
Inhibition rate, leucine aminopeptidase (leucine aminopeptidase; 1 × 10^-5 M): 0%

CC(=O)ON=C[C@@H]1CCCN1C(=O)[C@@H]1CCCN1C(=O)OCc1ccccc1 [Compound 15, (2S)-1-(N-Benzyloxycarbonyl-L-prolyl)-2-pyrrolidinecarboxaldehyde O-acetyloxime]
inhibition at 1 µM (cathepsin B): 0%
inhibition at 1 µM (elastase): 0%
inhibition at 1 µM (chymotrypsin): 0%
inhibition at 1 µM (trypsin): 0%
inhibition at 1 µM (prolyl endopeptidase): 100%
IC50 (prolyl endopeptidase): 4.5 nM
Inhibition rate, leucine aminopeptidase (leucine aminopeptidase; 1 × 10^-6 M): 0%

CC(=O)ON=C[C@@H]1CSCN1C(=O)[C@@H]1CSCN1C(=O)OCc1ccccc1 [Compound 17, (4R)-3-(N-Benzyloxycarbonyl-L-thioprolyl)-4-thiazolidinecarboxaldehyde O-acetyloxime]
IC50 (prolyl endopeptidase): 310 nM

O=C[C@@H]1CCCN1C(=O)[C@@H]1CSCN1C(=O)CN1CCCC1=O [Compound 6, N-[(2-Oxo-1-pyrrolidinyl)acetyl]-L-thioprolyl-L-prolinal]
IC50 (prolyl endopeptidase): 1.5 nM

CC(=O)ON=C[C@@H]1CCCN1C(=O)CCC(=O)NCc1ccc(Cl)cc1 [Compound 21, (2S)-1-[4-Oxo-4-(4-chlorobenzylamino)butanoyl]-2-pyrrolidinecarboxaldehyde O-acetyloxime]
inhibition at 1 µM (cathepsin B): 0%
inhibition at 1 µM (elastase): 0%
inhibition at 1 µM (chymotrypsin): 0%
inhibition at 1 µM (trypsin): 10%
inhibition at 1 µM (prolyl endopeptidase): 100%
IC50 (prolyl endopeptidase): 40 nM
Inhibition rate, leucine aminopeptidase (leucine aminopeptidase; 1 × 10^-6 M): 0%

O=C[C@@H]1CCCN1C(=O)CCC(=O)N1CCCC1=O [Compound 10]
IC50 (prolyl endopeptidase): 70 nM

O=C[C@@H]1CSCN1C(=O)[C@@H]1CCCN1C(=O)CN1CCCC1=O [Compound 5, N-[(2-Oxo-1-pyrrolidinyl)acetyl]-L-prolyl-L-thioprolinal]
IC50 (prolyl endopeptidase): 3 nM

Source: patent US5118811A, “Amino acid derivatives possessing prolyl endopeptidase-inhibitory activities” (Japan Tobacco Inc., priority 1989, dated 1992)
